Assay results reported in publication PMC6928599, “Construction of a Robust Cofactor Self-Sufficient Bienzyme Biocatalytic System for Dye Decolorization and its Mathematical Modeling” (International Journal of Molecular Sciences, 2019).

Target: CsTMR (triphenylmethane reductase) (Citrobacter sp. MY-5, UniProt Q2TNI4)
Assay: decolorization in bienzyme fed-batch system; OD616 assay
Assay type: biochemical
Settings: glucose 200 mM, NAD 1 mM, malachite green 3 µM, BzGDH for NADH regeneration, 25 °C; OD616 assay: 200 µM NADH, 20 µM malachite green, pH 7.0

CsTMR (triphenylmethane reductase), sequence (Q2TNI4 entry or part of it): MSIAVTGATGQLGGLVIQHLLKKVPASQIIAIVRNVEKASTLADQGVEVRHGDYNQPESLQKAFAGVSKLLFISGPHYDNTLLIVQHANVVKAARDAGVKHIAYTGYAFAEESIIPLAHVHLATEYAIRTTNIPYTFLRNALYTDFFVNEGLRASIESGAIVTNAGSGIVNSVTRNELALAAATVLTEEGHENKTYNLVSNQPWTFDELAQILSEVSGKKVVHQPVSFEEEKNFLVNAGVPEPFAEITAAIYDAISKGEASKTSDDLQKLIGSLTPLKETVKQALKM

Structure (SMILES): CN(C)c1ccc(C(=C2C=CC(=[N+](C)C)C=C2)c2ccccc2)cc1 [malachite green]
- decolorization in bienzyme fed-batch system; OD616 assay: The activity of CsTMR was assayed by monitoring the OD616 of malachite green
